Source: US9307765B2, “Selective weed control using D-napropamide” (UPL Limited, priority 2013, dated 2016)
Several values for one entry are separate records, joined by “and”; a condition that tells them apart may be missing. Identical values can stand only once.

How the values were obtained:
Format in all cases: in vivo
Senecio vulgaris = assay: Field trial in winter oilseed rape, pre-emergence, % control
Experimental: (§1) Field trials were conducted on various moncotyledonous weeds and dicotyledonous weeds and the effect of D-isomer of Napropamide was studied to understand the selective and effective control of dicotyledonous weeds over monocotyledonous weeds. The effect of D-isomer of Napropamide in comparison to racemic napropramide and untreated was studied, which is concluded hereinbelow:
(§2) Several small plot replicated trials were carried out to evaluate and/or compare the efficacy of D-Napropamide against a range of indicated annual broadleaved and grass weed species in the indicated crops. No problems were encountered during mixing or application of any of the product formulations or tank mixtures under test.
(§3) In each of the reported data, the homogeneity of variance was tested by Bartlett's test. Wherever this test indicated no homogeneity of variance, the transformed values were used for analysis of variance. Assessment data was then analyzed using a two-way analysis of variance (ANOVA) on untransformed and transformed data. The probability of no significant differences occurring between treatment means was calculated as the F probability value (p(F)). A mean comparison test was only performed and reported when the treatment of F that was calculated during analysis of variance was significant at the observed significance level specified for the mean comparison test. Where the data was transformed, treatment means in the reports were presented in their detransformed state, with the appropriate letter test and mean descriptions (LSD and standard deviation) derived from the transformed ANOVA.
(§4) Trials were conducted to evaluate the selectivity and efficacy of D-isomer of Napropamide when applied pre-emergence to oilseed rape crop. The % control of weed was assessed at regular intervals.

Triticum aestivum = assay: as above
Experimental: as §1, §2, §3, §4

Cirsium arvense = assay: as above
Experimental: as §1, §2, §3, §4

Fallopia convolvulus = assay: as above
Experimental: as §1, §2, §3, §4

Digitaria sanguinalis = assay: Plot trial, % control of Digitaria sanguinalis
Experimental: as §1, §2
as §3, with “ANOVA. […]” for “ANOVA.”

Stellaria media = assay: Pre-emergence glasshouse pot study, seedling emergence and growth (OECD guideline); details: for Mean Final Foliar Fresh Weights Expressed as Percentage of Untreated Controls / Mean Final Foliar Fresh Weights: Stellaria media; for Mean Final Foliar Fresh Weights: 21 days after 50% emergence, untreated 1.44
Experimental: (§5) A study was carried out to determine the relative biological activity of the D and L isomers of Napropamide when applied pre-emergence to one monocotyledon and one dicotyledon species. Napropamide, containing 450 grammes active substance per liter (g a.s./L) formulated as a suspension concentrate and the D-isomer of Napropamide (1000 g a.s./L) were applied at a range of concentrations from 0.1575 to 1.26 kilograms of active substance per hectare (kg a.s/Ha).
(§6) EC50 values in kg a.s./Ha were calculated from the dose response data using final foliar fresh weight data for each species and was used to determine the relative biological activity of the D and L isomers of Napropamide. The methodology was based on the OECD guideline […], according to the revision of July 2006 for seedling emergence and growth. The study was conducted to GLP standards.
(§7) Seeds were sown directly into non-porous plastic pots containing the following mix of soil: 10 L of sterile loam+4 L of coarse grit (washed quartztite, nominal 4 mm)+10 L of sand. This soil mix was characterized as a sandy loam with an organic carbon content of 1.5% and pH of 7.2. Details of the plant species, number of seeds per pot and pot size are shown below. All seeds were sown 1-2 cm deep.
(§8) The highest concentration of Napropamide was prepared by measuring a calculated volume by weight and diluting with tap water to the full required volume. Lower concentrations were prepared by serial dilution with water. D-Napropamide was prepared by dissolving the calculated weight in acetone and adding water to give the full required volume in 50:50 acetone+water. Lower concentrations were prepared by serial dilution with 50:50 acetone+water. D-Napropamide dissolved completely.
(§9) The sprayer was calibrated within 24 hours prior to application by weight of 15 applications of water to six 86 mm ID petri dishes. The total weight of water over a known area enabled a simple calculation giving the volume rate to be made. The volume rate achieved was within the range specified in the study plan (200 L/Ha±10%).
(§10) Replication was 5 pots per treatment for each plant species. After application, pots were placed on the bench in glasshouse in randomized blocks. Plants were assessed for emergence, mortality and visual injury (expressed as a percentage of the untreated control: 0%=no injury, 1-39%=slight injury, 40-69%=moderate injury, 70-99%=severe injury and 100%=all plants dead) at 14 and 21 days after 50% emergence in the untreated controls. Fresh weights (biomass above soil level) were also recorded 21 days after 50% emergence in the untreated controls. Plants were fully turgid at the time of harvest.
(§11) Assessment data was recorded on pro-forma sheets and entered into Gylling ARM 7 software. EC50 values were calculated using audited means data from the final assessments (21 day). Gylling ARM 7.0 software used a simple probit—maximum likelihood estimation method with 99% confidence level. The EC50 values generated were then visually checked against the means data table to verify they appeared correct.

Poa annua = assay: as above; details: for Mean Final Foliar Fresh Weights Expressed as Percentage of Untreated Controls / Mean Final Foliar Fresh Weights: Poa annua; for Mean Final Foliar Fresh Weights: 21 days after 50% emergence, untreated 0.90
Experimental: as §5, §6, §7, §8, §9, §10, §11

[1] = rate 0.1575 kg/Ha pre-emergence
[2] = dicotyledonous weeds (Stellaria media EC50)
[3] = monocotyledonous weeds (Poa annua EC50)

Compound: CCN(CC)C(=O)[C@@H](C)Oc1cccc2ccccc12 [D-Napropamide, D-(−)-N,N-diethyl-2-(α-naphthoxy)propionamide]
- Percentage Control at 214 DAA (Senecio vulgaris; 450 g/L @ 1.6 L/Ha, listed as D Napropamide): 82.15% and 94.72%
- Conclusion: efficacy in control vis-à-vis Napropamide at an equivalent dosage (Senecio vulgaris; Senecio vulgaris, dicot): superior efficacy
- Percentage Control at 51 DAA (Triticum aestivum; 450 g/L @ 1.4 L/Ha): 0.00%
- Percentage Control at 72 DAA (Triticum aestivum; 450 g/L @ 1.4 L/Ha): 0.00%
- Percentage Control at 51 DAA (Triticum aestivum; 450 g/L @ 1.6 L/Ha): 0.00%
- Percentage Control at 72 DAA (Triticum aestivum; 450 g/L @ 1.6 L/Ha): 0.00%
- Percentage Control at 51 DAA (Triticum aestivum; 450 g/L @ 1.8 L/Ha): 0.00%
- Percentage Control at 72 DAA (Triticum aestivum; 450 g/L @ 1.8 L/Ha): 0.00%
- Percentage Control at 51 DAA (Triticum aestivum; 450 g/L @ 2.0 L/Ha): 0.00%
- Percentage Control at 72 DAA (Triticum aestivum; 450 g/L @ 2.0 L/Ha): 0.00%
- Conclusion: control of the weed (Triticum aestivum; Triticum aestivum, monocot): negligible control
- Percentage Control at 51 DAA (Cirsium arvense; 450 g/L @ 1.6 L/Ha): 100.00%
- Conclusion: control of the weed at equivalent dosage (Cirsium arvense; Cirsium arvense, dicot): superior control
- Percentage Control at 63 DAA (Fallopia convolvulus; 450 g/L @ 1.6 L/Ha): 100.00%
- Percentage Control at 63 DAA (Fallopia convolvulus; 450 g/L @ 2.0 L/Ha): 100.00%
- Conclusion: efficacy in control vis-à-vis Napropamide at an equivalent dosage (Fallopia convolvulus; Fallopia convolvulus, dicot): superior efficacy
- % Control (Digitaria sanguinalis; 3 L/Ha of 450 g/L formulation, 16 DAA): 7.50%
- % Control (Digitaria sanguinalis; 3 L/Ha of 450 g/L formulation, 33 DAA): 8.75%
- % Control (Digitaria sanguinalis; 4.5 L/Ha of 450 g/L formulation, 16 DAA): 10.00%
- % Control (Digitaria sanguinalis; 4.5 L/Ha of 450 g/L formulation, 33 DAA): 10.00%
- % Control (Digitaria sanguinalis; 6 L/Ha of 450 g/L formulation, 16 DAA): 10.00%
- % Control (Digitaria sanguinalis; 6 L/Ha of 450 g/L formulation, 33 DAA): 12.50%
- % Control (Digitaria sanguinalis; 7.5 L/Ha of 450 g/L formulation, 16 DAA): 10.00%
- % Control (Digitaria sanguinalis; 7.5 L/Ha of 450 g/L formulation, 33 DAA): 11.25%
- % Control (Digitaria sanguinalis; 9 L/Ha of 450 g/L formulation, 16 DAA): 10.00%
- % Control (Digitaria sanguinalis; 9 L/Ha of 450 g/L formulation, 33 DAA): 18.75%
- Conclusion: efficacy in comparison to Napropamide in the control of monocotyledonous weeds (Digitaria sanguinalis; Digitaria sanguinalis): only as efficacious or less
- EC50 based on the final fresh weights (Stellaria media; Stellaria media (dicot), 21 day assessment, probit): 0.054 kg/Ha
- Mean Final Foliar Fresh Weights Expressed as Percentage of Untreated Controls (Stellaria media; rate 0.1575 kg/Ha): 35%
- Mean Final Foliar Fresh Weights (Stellaria media; [1]): 0.498 g
- Mean Final Foliar Fresh Weights Expressed as Percentage of Untreated Controls (Stellaria media; rate 0.315 kg/Ha): 14%
- Mean Final Foliar Fresh Weights (Stellaria media; rate 0.315 kg/Ha pre-emergence): 0.198 g
- Mean Final Foliar Fresh Weights Expressed as Percentage of Untreated Controls (Stellaria media; rate 0.630 kg/Ha): 12%
- Mean Final Foliar Fresh Weights (Stellaria media; rate 0.63 kg/Ha pre-emergence): 0.17 g
- times more active than L-Napropamide (Stellaria media; [2]): ~23.33 times
- times more active than racemic Napropamide (Stellaria media; [2]): about 4.07 times
- EC50 based on the final fresh weights (Poa annua; Poa annua (monocot), 21 day assessment, probit): 0.44 kg/Ha
- Mean Final Foliar Fresh Weights Expressed as Percentage of Untreated Controls (Poa annua; rate 0.1575 kg/Ha): 100%
- Mean Final Foliar Fresh Weights (Poa annua; [1]): 0.93 g
- Mean Final Foliar Fresh Weights Expressed as Percentage of Untreated Controls (Poa annua; rate 0.315 kg/Ha): 71%
- Mean Final Foliar Fresh Weights (Poa annua; rate 0.315 kg/Ha pre-emergence): 0.64 g
- Mean Final Foliar Fresh Weights Expressed as Percentage of Untreated Controls (Poa annua; rate 0.630 kg/Ha): 50%
- Mean Final Foliar Fresh Weights (Poa annua; rate 0.63 kg/Ha pre-emergence): 0.45 g
- more active than L-Napropamide (Poa annua; [3]): ~2.86 times
- times more active than racemic Napropamide (Poa annua; [3]): about 1.63 times
